Series [1] can be described thus: Final batch viscosity, Brookfield DV-I+ Viscometer. The class given is physicochemical. The note with it: 1.0% in cleansing composition; acceptable if at least twice the viscosity of Example 1. The procedure:
After this mixture had cooled to a temperature not greater than 40° C., the following components were added sequentially thereto: 0.10 parts Tetrasodium EDTA, 0.05 parts Quaternium-15, and 1.9 parts Glycerin. After this solution mixture had cooled to room temperature (approximately 25° C.), the pH of the resulting solution was then adjusted with a 20% citric acid solution until a final pH of 6.0 to 6.6 was obtained. The batch weight of the solution was then adjusted with water in order to achieve a total formulation of 100 parts. Table 2 lists the final batch viscosity of each Example as measured by a Brookfield DV-I+Viscometer using the indicated spindle and speed.
The viscosity of the examples was considered acceptable if it was at least twice the viscosity of Example 1.

Another series has as its system subject's eye. Kind of series: Ocular Irritancy Test (human ocular sting). The class given is in vivo. The conditions noted are these: 1.0% in mild cleansing composition. The procedure:
2. Ocular Irritancy Test: Using a double-blinded, randomized, two (2) cell study test design, one (1) drop of a sample (e.g. a 10% dilution of a cleansing composition in water) at a temperature of about 38° C. was instilled into a subject's eye. A new sterile disposable eyedropper was used for each sample and disposed of after being used on only one individual's eye. All instillations were performed either by an investigator or by a trained technician.
Within 30 seconds, or as closely as possible following instillation, the subject was asked to grade the perceived stinging sensation to the eye utilizing the following criteria:
After 15 minutes and 60 minutes post-instillation, the subject was again asked to grade the perceived stinging sensation to the eye. The data was collected from a balanced, complete block experiment then statistically analyzed.
The samples of Examples 1-8 were tested for ocular irritancy. The results are reported in Table 4 in terms of the percentage of subjects who found the respective sample to be stinging to their eyes.
A sample was considered to have low ocular irritancy if less than 20% of the people tested found the sample to sting their eyes.

A short description of series [2]: Foam Generation (Foam Tray Test). The class given is physicochemical. The conditions noted are these: 1.0% in cleansing composition; acceptable if at least twice the foam of Example 1. The procedure: 1. Foam Generation: 1 g of a cleansing composition sample was added to a tray containing 5 liters of tap water, then gently mixed until homogenous without generating any foam. A Model AJMP14 Jiffy Mixer mechanical mixer available from U.S. Best, Inc. with an attached propeller blade was then set at a level in the tray such that the propeller blade was halfway immersed in the mixture. The mixer was then activated at a speed of 2000 RPM for 30 seconds to generate foam. Foam data was collected via photography using a Polaroid MP4+ camera at 30 seconds after the mixing was ceased. The area of foam in the tray was calculated and reported as % area of foam in tray.
Foam performance evaluation was then accomplished for each of the cleansing compositions of Examples 1-8.
Foaming of the Examples was considered acceptable if it was at least twice the amount of foam of Example 1.

From patent publication US6514918B1, “Viscous, mild, and effective cleansing compositions” (Johnson & Johnson Consumer Companies, Inc., priority 2000, dated 2003) come the findings set out here.

Turning to PEG-3 Cocamide, the “Effect on viscosity of a mild cleansing composition” value (from here on “Effect on viscosity”) in series [1] was “effective at increasing the viscosity”. In addition, the “Mildness to the eye relative to Cocamide MIPA and Cocamide MEA” value in the series with subject's eye is on record as “significantly more mild to the eye”. Also, the “Effect on foam generation in mild cleansing compositions” value (“Effect on foam generation” below) in series [2] is reported as “effective at increasing foam generation”.

With “polyethylene glycol (“PEG”)-6 Cocamide [PEG-6 Cocamide]”, the “Effect on viscosity” value in series [1] is listed as “effective at increasing the viscosity”. In addition, the “Mildness to the eye relative to Cocamide MIPA and Cocamide MEA” value with subject's eye is given as “significantly more mild to the eye”. Besides, the “Effect on foam generation” value in series [2] was “effective at increasing foam generation”.

As to Cocamide DEA [reference compound], the “Effect on viscosity” value in series [1] was “effective at increasing the viscosity”. For the same substance, the “Mildness to the eye relative to Cocamide MIPA and Cocamide MEA” value in the series on subject's eye was “significantly more mild to the eye”. Further, the “Effect on foam generation” value in series [2] was “effective at increasing foam generation”.

For the substance Cocamide MIPA [reference compound], the “Effect on viscosity” value in series [1] is “effective at increasing the viscosity”. In addition, the “Effect on foam generation” value in series [2] is given as “effective at increasing foam generation”.

Turning to “polypropylene glycol (“PPG”)-2 Hydroxyethyl Cocamide [PPG-2 Hydroxyethyl Cocamide]”, the “Effect on viscosity” value in series [1] is recorded as “effective at increasing the viscosity”. In the series on subject's eye, the “Mildness to the eye relative to Cocamide MIPA and Cocamide MEA” value is “significantly more mild to the eye”. Besides, in series [2], the “Effect on foam generation” value is “effective at increasing foam generation”.

As for PEG-6 Lauramide, in series [1], the “Effect on viscosity” value was “effective at increasing the viscosity”. The “Mildness to the eye relative to Cocamide MIPA and Cocamide MEA” value in the series on subject's eye was “significantly more mild to the eye”. Also, the “Effect on foam generation” value in series [2] is “effective at increasing foam generation”.

Take Cocamide MEA [reference compound]: in series [1], the “Effect on viscosity” value is “effective at increasing the viscosity”. The “Effect on foam generation” value in series [2] was “effective at increasing foam generation”.
